According to patent US7968563B2, “Oxime and hydroxylamine substituted imidazo[4,5-c] ring compounds and methods” (3M Innovative Properties Company, priority 2005, dated 2011):
Counter-ions that a name gives are not always drawn.

melting point [°C] | SMILES
181 to 183 | CON=Cc1nc2c(N)nc3ccccc3c2n1CC(C)C [Example 4, 4-Amino-1-(2-methylpropyl)-1H-imidazo[4,5-c]quinoline-2-carbaldehyde O-methyloxime]
220 to 222 | CON(C)Cc1nc2c(N)nc3ccccc3c2n1CC(C)(C)O [Example 15, 1-(2-Hydroxy-2-methylpropyl)-2-{[methoxy(methyl)amino]methyl}-1H-imidazo[4,5-c]quinolin-4-amine]
182 to 184 | CON=C(C)CCc1nc2c(N)nc3ccccc3c2n1CC(C)(C)O [Example 5, 4-[4-Amino-1-(2-hydroxy-2-methylpropyl)-1H-imidazo[4,5-c]quinolin-2-yl]butan-2-one O-methyloxime]
223 to 226 | CON(C)Cc1nc2c(N)nc3ccccc3c2n1CC1CCOCC1 [Example 20, 2-{[Methoxy(methyl)amino]methyl}-1-(tetrahydro-2H-pyran-4-ylmethyl)-1H-imidazo[4,5-c]quinolin-4-amine]
169 to 171 | CONCc1nc2c(N)nc3ccccc3c2n1CC1CCOCC1 [Example 19, 2-[(Methoxyamino)methyl]-1-(tetrahydro-2H-pyran-4-ylmethyl)-1H-imidazo[4,5-c]quinolin-4-amine]
255 to 257 | CONCc1nc2c(N)nc3ccccc3c2n1CC(C)(C)O (as salt: hydrochloride) [Example 16, 1-(2-Hydroxy-2-methylpropyl)-2-{[methoxylamino]methyl}-1H-imidazo[4,5-c]quinolin-4-amine; hydrochloride]
178 to 181 | CONCc1nc2c(N)nc3ccccc3c2n1CC1(O)CCC1 [Example 12, 1-({4-Amino-2-[(methoxyamino)methyl]-1H-imidazo[4,5-c]quinolin-1-yl}methyl)cyclobutanol]
159 to 161 | CON(C)Cc1nc2c(N)nc3cc(OCc4ccccc4)ccc3c2n1CC1CCOCC1 [Example 7, 7-(Benzyloxy)-2-{[methoxy(methyl)amino]methyl}-1-(tetrahydro-2H-pyran-4-ylmethyl)-1H-imidazo[4,5-c]quinolin-4-amine]
219 to 221 | CON(C)Cc1nc2c(N)nc3ccccc3c2n1CC1(O)CCC1 [Example 13, 1-[(4-Amino-2-{[methoxy(methyl)amino]methyl}-1H-imidazo[4,5-c]quinolin-1-yl)methyl]cyclobutanol]
142 to 144 | CON(C)Cc1nc2cnc3ccccc3c2n1CC1CCOCC1 [Example 18, 2-{[Methoxy(methyl)amino]methyl}-1-(tetrahydro-2H-pyran-4-ylmethyl)-1H-imidazo[4,5-c]quinoline]

Further lines, the compound ahead of its results:

SMILES | melting point [°C]
CON(Cc1nc2c(N)nc3cc(OCc4ccccc4)ccc3c2n1CC1CCOCC1)S(C)(=O)=O [Example 8, N-{[4-Amino-7-(benzyloxy)-1-(tetrahydro-2H-pyran-4-ylmethyl)-1H-imidazo[4,5-c]quinolin-2-yl]methyl}-N-methoxymethanesulfonamide] | 195 to 197
CONCc1nc2c(N)nc(C)c(C)c2n1CC(C)C [Example 9, 1-Isobutyl-2-[(methoxyamino)methyl]-6,7-dimethyl-1H-imidazo[4,5-c]pyridin-4-amine] | 154 to 156
CON(C)Cc1nc2c(N)nc(C)c(C)c2n1CC(C)C [Example 10, 1-Isobutyl-2-{[methoxy(methyl)amino]methyl}-6,7-dimethyl-1H-imidazo[4,5-c]pyridin-4-amine] | 132 to 134
CON(Cc1nc2c(N)nc(C)c(C)c2n1CC(C)C)C(=O)C1CC1 [Example 11, N-[(4-Amino-1-isobutyl-6,7-dimethyl-1H-imidazo[4,5-c]pyridin-2-yl)methyl]-N-methoxycyclopropanecarboxamide] | 135 to 137
CONCc1nc2c(N)nc3cc(OCc4ccccc4)ccc3c2n1CC1CCOCC1 [Example 6, 7-(Benzyloxy)-2-[(methoxyamino)methyl]-1-(tetrahydro-2H-pyran-4-ylmethyl)-1H-imidazo[4,5-c]quinolin-4-amine] | 190 to 193
CO/N=C/c1nc2c(N)nc(C)c(C)c2n1CC(C)C [Example 14, 4-Amino-1-isobutyl-6,7-dimethyl-1H-imidazo[4,5-c]pyridine-2-carbaldehyde O-methyloxime] | 179 to 181
CONCc1nc2cnc3ccccc3c2n1CC1CCOCC1 [Example 17, 2-[(Methoxyamino)methyl]-1-(tetrahydro-2H-pyran-4-ylmethyl)-1H-imidazo[4,5-c]quinoline] | 58 to 63
